Measurements reported in US20110178171A1, “COMPOUNDS FOR CANCER THERAPY” (China Medical University, priority 2010, published 2011).
pIC50: −log10 of the molar value.

Key:
[1] = tested on: LNCaP cells; test: MTT growth inhibition assay, LNCaP; conditions: for Viability (%) LNCaP: 24 h (Table 2); for Viability (%) / pIC50: LNCaP; for Viability (%): 24 h (Table 1); for pIC50: androgen-dependent prostate adenocarcinoma
Description: (§1) The LNCaP (androgen-sensitive), PC3 (androgen in-dependent), human prostate cancer and normal human fibroblast 3T3 were obtained from American Type Culture Collection (Manassas, Va.) were maintained with RPMI 1640 medium containing 10% FBS and […] each of penicillin and streptomycin at […] in a humidified atmosphere with 5% CO2.
(§2) The viability of the cells after treated with various chemicals was evaluated using MTT assay preformed in triplicate (Mosmann T. 1983. Rapid colorimetric assay for cellular growth and survival: application to proliferation and cytotoxicity assays”. Journal of immunological methods. 65 (1-2): 55-63). Briefly, the cancer cells (5×10^3) were incubated in 96-well plates containing […] of the culture medium. Cells were permitted to adhere for 12-18 h then washed with phosphate buffered saline (PBS). Solutions were always prepared fresh by dissolving 0.2% DMSO or K8 in culture medium and added to various kind of tumor. After 48 h of exposure, K8 containing medium was removed, washed with PBS and replaced by fresh medium. The cells in each well were then incubated in culture medium with […] MTT for 4 h. After the medium were removed, […] of DMSO and […] of glycine buffer (0.1 M glycine, 0.1 M NaCl, pH 10.5) were added to each well. Absorbance at 570 nm of the maximum was detected by a PowerWave X Microplate ELISA Reader (Bio-TeK Instruments, Winoski, Vt.). The absorbance for DMSO treated cells was considered as 100%. The results were determined by three independent experiments.
Cytotoxicity of K8 (Isochaihulactone) on LNCaP cells was examined in the manner described above. The cells were treated with KS (Isochaihulactone), its Z-form, or its E-form of different concentrations ranging from 2.5 to 20 μM for 24 h.
Cytotoxicities of Z-K8 (Isochaihulactone) on LNCaP (AR-dependent), and PC3 (AR-independent) tumor cell line were examined in the manner described above. The cells were treated with the Z- or E-form K8 (Isochaihulactone) of different concentrations ranging from 0.3125 to 5 μM for 24 h.

[2] = tested on: PC3 cells; test: MTT growth inhibition assay, PC3; format: cell-based, human; conditions: for Viability (%) PC-3: 24 h (Table 2)
Description: as §1, §2
Cytotoxicities of Z-K8 (Isochaihulactone) on LNCaP (AR-dependent), and PC3 (AR-independent) tumor cell line were examined in the manner described above. […]

[3] = tested on: gastric cancer cell line NCI-N87; test: MTT growth inhibition assay, NCI-N87; format: cell-based; conditions: NCI-N87, gastric carcinoma
Description: (§3) The results were determined by three independent experiments.
(§4) Besides, the above assay was also conducted on gastric cancer cell line NCI-N87, liver cancer cell line HepG2 and J5, lung cancer cell line A549, and oral cancer cell line OECM-1.

[4] = tested on: LNCaP cells; test: Cell cycle analysis by flow cytometry; format: cell-based, human; conditions: 24 h
Description: The cell cycle was determined by flow cytometry with DNA staining to reveal the total amount of DNA. Approximately 5×10^5 of cells were incubated in various concentration of isochaihulactone for the indicated time. Cells were harvested by treating the cells with trypsin/EDTA. The cells were collected, washed with PBS, fixed with cold 70% ethanol overnight, and then stained with a solution containing […] PI, 10 mg/ml RNase A, and 0.1% Triton X-100 for 1 h in the dark. The cells will then pass through FACScan flow cytometer (equipped with a 488-nmargon laser) to measure the DNA content. The data was obtained and analyzed with CellQuest 3.0.1 (Becton Dickinson, Franklin Lakes, N.J.) and ModFitLT V2.0 software. The results are shown Table 4 and FIG. 4.
Assays were carried out to examine the effect of Z-K8 in inducing G2/M phase arrest and apoptosis in LNCaP cells. Briefly, the cells were treated with different concentrations of Z-K8 (ranging from 0.25 to 2 μM) for 24 h. The cell cycle analysis was done according to the method described above. As shown in FIG. 4 and Table 4, Z-K8 induced cell cycle G2/M arrest in LNCaP cells.

[5] = tested on: liver cancer cell line J5; test: MTT growth inhibition assay, J5; format: cell-based; conditions: J5, hepatocarcinoma
Description: as §3, §4

[6] = tested on: AR; test: RT-PCR analysis of AR expression; format: cell-based, human
Description: Total RNA from LNCaP, PC3, 3T3 cells was isolated as described above. cDNA was synthesized by reverse transcription of 2 μg of total RNA using oligo(dT)12-18 and SuperScript II RNA reverse transcriptase (Invitrogen). The cDNA was then used as the template to amplify the corresponding DNA fragments by PCR using two sets of synthetic oligonucleotide primers. DNA amplification was performed by PCR with the Thermocycler 2400 (PerkinElmer Life and Analytical Sciences, Boston, Mass.) using the following parameters: 35 cycles of denaturing at 95° C. for 1 min, annealing at 60° C. for 1 min, and extension at 72° C. for 2 min. Primers used for the AR PCR amplifications are (F): 5′-ATGGTGAGCAGAGTGCCCTA-3′ (SEQ ID NO: 1) (R): 5′-GTGGTGCTGGAAGCCTCTCCT-3′ (SEQ ID NO: 2) PSA (F) 5′-GGTGACCAAGTTCATGCTGTG-3′ (SEQ ID NO: 3) (R) 5′-GTGTCCTTGATCCACTTCCG-3′ (SEQ ID NO: 4) products were separated on 2% agarose gels, stained with ethidium bromide, and visualized using the Fluor Chem imaging system (Alpha InnoTech, San Leandro, Calif.), and levels of glyceraldehyde-3-phosphate dehydrogenase were used as the control.
RT-PCR was conducted to examine the effect of Z-K8 on several human cancer cells. Briefly, the cells were treated with Z-K8 (0.5 μM to 2 μM) or Luteolin (as a positive control) for 24 h. […]

In the case of COc1cc(/C=C2\C(=O)OCC2Cc2ccc3c(c2)OCO3)cc(OC)c1OC (racemic) [Z-K8, Racemic (Z)-β-(3′,4′-Methylenedioxybenzyl)-α-(3′,4′,5′-trimethoxybenzylidene)-γ-butyrolactone], the “Viability (%) LNCaP” value ([1]; 0.625 μM) was 68.9%, the “Viability (%) LNCaP” value ([1]; 1.25 μM) was 43.7% and the “Viability (%) LNCaP” value ([1]; 2.5 μM) was 21.7%. The “Viability (%) LNCaP” value ([1]; 5 μM) was 18.4%, the “Viability (%) LNCaP” value ([1]; 10 μM) was 16.9% and the “Viability (%)” value ([1]; 2.5 μM) was 33.0%. For the same compound, the “Viability (%)” value ([1]; 5 μM) was 18.7%, the “Viability (%)” value ([1]; 10 μM) was 17.2% and the “Viability (%)” value ([1]; 20 μM) was 16.1%. The pIC50 [1] was 5.90, the pIC50 ([1]; listed as Z-form of K8) was 6.00 and the “Viability (%) PC-3” value ([2]; 0.625 μM) was 92.0%. The “Viability (%) PC-3” value ([2]; 1.25 μM) was 84.5%, the “Viability (%) PC-3” value ([2]; 2.5 μM) was 74.9% and the “Viability (%) PC-3” value ([2]; 5 μM) was 44.9%. The “Viability (%) PC-3” value ([2]; 10 μM) was 28.3%, the pIC50 ([2]; PC3, androgen-independent prostate adenocarcinoma) was 4.00 and the pIC50 [3] was < 4.00. For the same compound, the “Cells in phase (%) G0/G1” value ([4]; 0.25 μM) was 63.56%, the “Cells in phase (%) G2/M” value ([4]; 0.25 μM) was 18.35% and the “Cells in phase (%) S” value ([4]; 0.25 μM) was 5.42%. For the same compound, the “Cells in phase (%) Sub-G1” value ([4]; 0.25 μM) was 0.48%, the “Cells in phase (%) G0/G1” value ([4]; 0.5 μM) was 48.30% and the “Cells in phase (%) G2/M” value ([4]; 0.5 μM) was 24.99%. For the same compound, the “Cells in phase (%) S” value ([4]; 0.5 μM) was 6.61%, the “Cells in phase (%) Sub-G1” value ([4]; 0.5 μM) was 3.24% and the “Cells in phase (%) G0/G1” value ([4]; 1 μM) was 57.27%. For the same compound, the “Cells in phase (%) G2/M” value ([4]; 1 μM) was 10.16%, the “Cells in phase (%) S” value ([4]; 1 μM) was 4.70% and the “Cells in phase (%) Sub-G1” value ([4]; 1 μM) was 8.19%. For the same compound, the “Cells in phase (%) G0/G1” value ([4]; 2 μM) was 22.25%, the “Cells in phase (%) G2/M” value ([4]; 2 μM) was 43.92% and the “Cells in phase (%) S” value ([4]; 2 μM) was 8.39%. For the same compound, the “Cells in phase (%) Sub-G1” value ([4]; 2 μM) was 5.73%, the pIC50 [5] was 5.60 and the “AR expression over time (RT-PCR)” value ([6]; LNCaP cells, 1 μM, different times (FIG. 3B)) was “decreased AR expression in a time-dependent manner”. The “AR expression (RT-PCR)” value ([6]; human cancer cells, 0.5 μM to 2 μM, 24 h, dose-dependent (FIG. 3A)) was “down regulated”.
